From paper PMC8305912, “The HDAC/HSP90 Inhibitor G570 Attenuated Blue Light-Induced Cell Migration in RPE Cells and Neovascularization in Mice through Decreased VEGF Production” (Molecules, 2021)

Assays:
[1] = test system: HeLa nuclear extract HDAC; experiment: HeLa nuclear extract HDAC activity assay; type: biochemical; settings: HeLa nuclear extract as HDAC source
Hsp90α = molecular target: T1, Hsp90α (Homo sapiens, UniProt P07900); experiment: Heat shock protein (Hsp) 90α activity assay (fluorescence polarization, FITC-labeled geldanamycin); type: binding; settings: read-out: HSP90 IC50
T1 construct: purchased BPS Bioscience

[2] = test system: laser-induced choroidal neovascularization (CNV); experiment: Laser-induced choroidal neovascularization (CNV) model, fundus fluorescein angiography; type: in vivo, C57BL/6 mice; settings: day 7, vs vehicle; G570 20 mg/kg/day i.p. days 0, 1, 3, 5; Eylea 40 μg/1 μL per eye i.v.t. day 0

Compound	IC50 (Hsp90α) [nM]	also measured
COc1c(C)cnc(Cn2cnc3c(Cl)nc(N)nc32)c1C [BIIB021]	–	IC50 [1]: > 1000 nM
O=C(CCCCCCC(=O)Nc1ccccc1)NO [SAHA, reference compound]	> 1000	–
aflibercept [Eylea]	–	laser-induced leakage area of fluorescein (FFA) [2]: significantly decreased

More lines, main results first:

IC50 (Hsp90α) [nM]	Compound	also measured
49.3 ± 1.6	CC(C)c1cc(C(=O)N2CCc3cc(NC(=O)CCC(=O)NO)ccc32)c(O)cc1O [Compound 1, N1-(1-(2,4-dihydroxy-5-isopropylbenzoyl)indolin-5-yl)-N4-hydroxysuccinamide]	–
55.9 ± 3.2	CC(C)c1cc(C(=O)N2CCc3cc(NC(=O)CCCC(=O)NO)ccc32)c(O)cc1O [Compound 2, N1-(1-(2,4-dihydroxy-5-isopropylbenzoyl)indolin-5-yl)-N5-hydroxyglutaramide]	–
40.2 ± 5.2	CC(C)c1cc(C(=O)N2CCc3cc(NC(=O)CCCCCC(=O)NO)ccc32)c(O)cc1O [Compound 4, N1-(1-(2,4-dihydroxy-5-isopropylbenzoyl)indolin-5-yl)-N7-hydroxyheptanediamide]	–
52.1 ± 2.9	CC(C)c1cc(C(=O)N2CCc3cc(NC(=O)CCCCCCCC(=O)NO)ccc32)c(O)cc1O [Compound 6, N1-(1-(2,4-dihydroxy-5-isopropylbenzoyl)indolin-5-yl)-N9-hydroxynonanediamide]	–
58.6 ± 2.2	CC(C)c1cc(C(=O)N2CCc3cc(NC(=O)CCCCCCCCC(=O)NO)ccc32)c(O)cc1O [Compound 7, N1-(1-(2,4-dihydroxy-5-isopropylbenzoyl)indolin-5-yl)-N10-hydroxydecanediamide]	–
